Results published in patent US20240230656A1, “Predicting Prognosis and Treatment Response of Breast Cancer Patients Using Expression and Cellular Localization of N-Myristoyltransferase” (Oncodrex Inc., priority 2021, published 2024).

Columns and labels:
NMT1 = assay: MCF7 gene expression of NMT following insulin stimulation or rapamycin treatment (NMT1); type: cell-based; settings: MCF7 cells
Excerpt: (§1) Example 9—MCF7 Gene Expression of NMT and WT1 Regulated Genes Following Insulin Stimulation
(§2) NMT1 was also shown to bind to regions of DNA containing BASP1 regulated growth genes. […] This supports our prediction that phosphorylation is the leading PI3K/AKT/mTOR mediated regulatory mechanism responsible for NMT1 modulation.

NMT2 = assay: MCF7 gene expression of NMT following insulin stimulation or rapamycin treatment (NMT2); type: cell-based; settings: MCF7 cells
Excerpt: as §1, §2

## insulin
NMT1
  NMT1 expression following treatment: little change
NMT2
  NMT2 expression following treatment: little change
